This passage reports IC50 results from patent publication US11053226B2, “KRAS G12C inhibitors and methods of using the same” (Amgen Inc., priority 2018, dated 2021).

pIC50: −log10 of the molar value.

Sequence of GDP-bound KRAS protein (aa 1-169), containing both G12C and C118A amino acid substitutions (P01116 other isoform, or with tags, fused parts or gaps G12C/C118A): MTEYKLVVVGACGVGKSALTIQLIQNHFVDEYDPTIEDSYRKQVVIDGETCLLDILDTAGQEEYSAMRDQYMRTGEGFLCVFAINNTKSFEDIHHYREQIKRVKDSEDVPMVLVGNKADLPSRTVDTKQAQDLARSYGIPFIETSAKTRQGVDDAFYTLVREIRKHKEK

For the first assay, the target named is GDP-bound KRAS protein (aa 1-169), containing both G12C and C118A amino acid substitutions (Homo sapiens (Human), UniProt P01116, C118A/G12C). Nature of the assay: Coupled Nucleotide Exchange Assay. Type of assay: biochemical. Conditions: read-out: Coupled Exchange IC50 (5 min); 5 min compound pre-incubation. As for the experimental part:
For compounds in Table 9, the following assay conditions were employed:
Coupled Nucleotide Exchange Assay:
The assay plates were then read on a PerkinElmer EnVision Multilabel Reader, using AlphaScreen® technology, and data were analyzed using a 4-parameter logistic model to calculate IC50 values.
The term pIC50 denotes −log10 of the IC50, conventionally taken in molar units. With `C=CC(=O)N1CC(NC(=O)Cn2cc(I)c3ccccc32)C1` [Example 212], the pIC50 was less than 3.60.

For `C=CC(=O)N1CC(NC(=O)Cn2cc(Br)c3cc([N+](=O)[O-])ccc32)C1` [Example 233], the pIC50 is less than 3.60.

In the case of `C=CC(=O)N1CC(NC(=O)Cn2cc(I)c3cc(C(F)(F)F)ccc32)C1` [Example 257], the negative logarithm of the IC50 (pIC50) was 4.19.

The same assay, now with this note: read-out: Coupled Exchange IC50 (2 h); 2 h compound pre-incubation.
Regarding `C=CC(=O)N1CC(NC(=O)Cn2cc(-c3c(C)ccc4cn[nH]c34)c3cc(-c4c(C)ccc5cn[nH]c45)ccc32)C1` [Example 205], the pIC50 was 4.09.

Take `C=CC(=O)N1CC(NC(=O)Cn2cc(-c3cccnc3)c3cc(Br)ccc32)C1` [Example 206]: the pIC50 was 4.85.

Regarding `C=CC(=O)N1CC(NC(=O)Cn2cc(-c3cccnc3)c3cc(-c4cccnc4)ccc32)C1` [Example 207], the pIC50 is 3.79.

As for `C=CC(=O)N1CC(NC(=O)Cn2cc(-c3c(F)ccc4cn[nH]c34)c3cc(-c4c(F)ccc5cn[nH]c45)ccc32)C1` [Example 208], the pIC50 was 4.69.

Turning to `C=CC(=O)N1CC(NC(=O)Cn2cc(-c3ccccc3OC)c3cc(-c4ccccc4OC)ccc32)C1` [Example 209], the pIC50 was 4.85.

Turning to `C=CC(=O)N1CC(NC(=O)Cn2cc(-c3ccc(F)cc3F)c3cc(-c4ccc(F)cc4F)ccc32)C1` [Example 210], the pIC50 was less than 3.60.

`C=CC(=O)N1CC(NC(=O)Cn2cc(C#N)c3cc(Br)ccc32)C1` [Example 211]: the pIC50 is 4.64.

In the case of `C=CC(=O)N1CC(NC(=O)Cn2cc(I)c3ccccc32)C1` [Example 212], the pIC50 is 4.56.

Turning to `C=CC(=O)N1CC(NC(=O)Cn2cc(Cc3ccccc3)c3ccccc32)C1` [Example 213], the pIC50 is 4.51.

Take `C=CC(=O)N1CC(NC(=O)Cn2cc(CC#N)c3cc(Br)ccc32)C1` [Example 214]: the pIC50 is 4.47.

Take `C=CC(=O)N1CC(NC(=O)Cn2c(-c3ccncc3)cc3ccccc32)C1` [Example 215]: the pIC50 was less than 3.60.

Take `C=CC(=O)N1CC(NC(=O)Cn2cc(-c3cccc(C#N)c3)c3cc(Br)ccc32)C1` [Example 216]: the pIC50 is 4.89.

With `C=CC(=O)N1CC(NC(=O)Cn2ccc3cc(C4CC4)ccc32)C1` [Example 217], the pIC50 is less than 3.60.

Take `C=CC(=O)N1CC(NC(=O)Cn2c3ccc(Br)cc3c3ccc(Cl)nc32)C1` [Example 218]: the pIC50 was less than 3.60.

For `C=CC(=O)N1CC(NC(=O)Cn2cc(-c3cocn3)c3ccc(-c4ccccc4Cl)cc32)C1` [Example 219], the pIC50 was less than 3.60.

Take `C=CC(=O)N1CC(NC(=O)Cn2c(C(=O)OC)cc3c(Cl)c(Cl)ccc32)C1` [Example 220]: the pIC50 is 4.91.

For `C=CC(=O)N1CC(NC(=O)Cn2c(C(=O)NCc3ccc(C(=O)O)s3)cc3cc(Br)ccc32)C1` [Example 225], the pIC50 is less than 3.60.

Turning to `C=CC(=O)N1CC(NC(=O)Cn2cc(CC(=O)NCc3ccccc3)c3cc(Br)ccc32)C1` [Example 226], the pIC50 was 5.08.

Regarding `C=CC(=O)N1CC(NC(=O)Cn2c3c(c4cc(Br)ccc42)CCN(C(=O)OCc2ccccc2)C3)C1` [Example 227], the pIC50 is 4.91.

Take `C=CC(=O)N1CC(NC(=O)Cn2cc(-c3cc[nH]n3)c3ccc(-c4ccccc4Cl)cc32)C1` [Example 229]: the pIC50 is 4.72.

Take `C=CC(=O)N1CC(NC(=O)Cn2cc(Cc3ccccc3)c3cc(Br)ccc32)C1` [Example 231]: the pIC50 is 4.99.

As to `C=CC(=O)N1CC(NC(=O)Cn2ccc3cc([N+](=O)[O-])ccc32)C1` [Example 232], the pIC50 was less than 3.60.

On to `C=CC(=O)N1CC(NC(=O)Cn2cc(Br)c3cc([N+](=O)[O-])ccc32)C1` [Example 233], for which the pIC50 is 4.94.

Take `C=CC(=O)N1CC(NC(=O)Cn2c3ccc(Br)cc3c3ccc(Oc4ccc(F)cc4)nc32)C1` [Example 234]: the pIC50 is less than 3.60.

`C=CC(=O)N1CC(NC(=O)Cn2ccc3cc(C(F)(F)F)ccc32)C1` [Example 235]: the pIC50 is less than 3.60.

Turning to `C=CC(=O)N1CC(NC(=O)Cn2ccc3cc(OC)ccc32)C1` [Example 236], the pIC50 was less than 3.60.

In the case of `C=CC(=O)N1CC(NC(=O)Cn2cc(I)c3cc(C(F)(F)F)ccc32)C1` [Example 257], the pIC50 is 5.04.

Staying with this assay, now noted: read-out: Coupled Exchange IC50 (20 h); 20 h compound pre-incubation.
`C=CC(=O)N1CC(NC(=O)Cn2cc(-c3c(C)ccc4cn[nH]c34)c3cc(-c4c(C)ccc5cn[nH]c45)ccc32)C1` [Example 205]: the pIC50 was 4.94.

For `C=CC(=O)N1CC(NC(=O)Cn2cc(-c3cccnc3)c3cc(Br)ccc32)C1` [Example 206], the pIC50 is 5.55.

As for `C=CC(=O)N1CC(NC(=O)Cn2cc(-c3cccnc3)c3cc(-c4cccnc4)ccc32)C1` [Example 207], the pIC50 was 4.74.

In the case of `C=CC(=O)N1CC(NC(=O)Cn2cc(-c3c(F)ccc4cn[nH]c34)c3cc(-c4c(F)ccc5cn[nH]c45)ccc32)C1` [Example 208], the pIC50 was 4.89.

As to `C=CC(=O)N1CC(NC(=O)Cn2cc(-c3ccccc3OC)c3cc(-c4ccccc4OC)ccc32)C1` [Example 209], the pIC50 is 5.52.

On to `C=CC(=O)N1CC(NC(=O)Cn2cc(-c3ccc(F)cc3F)c3cc(-c4ccc(F)cc4F)ccc32)C1` [Example 210], for which the pIC50 is 4.96.

For `C=CC(=O)N1CC(NC(=O)Cn2cc(C#N)c3cc(Br)ccc32)C1` [Example 211], the pIC50 is 5.28.

Turning to `C=CC(=O)N1CC(NC(=O)Cn2cc(I)c3ccccc32)C1` [Example 212], the pIC50 is 5.17.

Take `C=CC(=O)N1CC(NC(=O)Cn2cc(Cc3ccccc3)c3ccccc32)C1` [Example 213]: the pIC50 was 5.29.

`C=CC(=O)N1CC(NC(=O)Cn2cc(CC#N)c3cc(Br)ccc32)C1` [Example 214]: the pIC50 was 5.35.

As for `C=CC(=O)N1CC(NC(=O)Cn2c(-c3ccncc3)cc3ccccc32)C1` [Example 215], the pIC50 was less than 3.60.

As for `C=CC(=O)N1CC(NC(=O)Cn2cc(-c3cccc(C#N)c3)c3cc(Br)ccc32)C1` [Example 216], the pIC50 is 5.52.

Consider `C=CC(=O)N1CC(NC(=O)Cn2ccc3cc(C4CC4)ccc32)C1` [Example 217], for which the pIC50 was less than 3.90.

Take `C=CC(=O)N1CC(NC(=O)Cn2c3ccc(Br)cc3c3ccc(Cl)nc32)C1` [Example 218]: the pIC50 was less than 3.60.

In the case of `C=CC(=O)N1CC(NC(=O)Cn2cc(-c3cocn3)c3ccc(-c4ccccc4Cl)cc32)C1` [Example 219], the pIC50 is 5.54.

Turning to `C=CC(=O)N1CC(NC(=O)Cn2c(C(=O)OC)cc3c(Cl)c(Cl)ccc32)C1` [Example 220], the pIC50 was 5.72.

As for `C=CC(=O)N1CC(NC(=O)Cn2c(C(=O)NCc3ccc(C(=O)O)s3)cc3cc(Br)ccc32)C1` [Example 225], the pIC50 is 4.70.

Consider `C=CC(=O)N1CC(NC(=O)Cn2cc(CC(=O)NCc3ccccc3)c3cc(Br)ccc32)C1` [Example 226], for which the pIC50 is 5.78.

Regarding `C=CC(=O)N1CC(NC(=O)Cn2c3c(c4cc(Br)ccc42)CCN(C(=O)OCc2ccccc2)C3)C1` [Example 227], the pIC50 was 5.58.

Regarding `C=CC(=O)N1CC(NC(=O)Cn2cc(-c3cc[nH]n3)c3ccc(-c4ccccc4Cl)cc32)C1` [Example 229], the pIC50 is 5.27.

As to `C=CC(=O)N1CC(NC(=O)Cn2cc(Cc3ccccc3)c3cc(Br)ccc32)C1` [Example 231], the pIC50 is 5.69.

Regarding `C=CC(=O)N1CC(NC(=O)Cn2ccc3cc([N+](=O)[O-])ccc32)C1` [Example 232], the pIC50 was 4.03.

As for `C=CC(=O)N1CC(NC(=O)Cn2cc(Br)c3cc([N+](=O)[O-])ccc32)C1` [Example 233], the pIC50 is 5.80.

For the compound `C=CC(=O)N1CC(NC(=O)Cn2c3ccc(Br)cc3c3ccc(Oc4ccc(F)cc4)nc32)C1` [Example 234], the pIC50 was 6.49.

Consider `C=CC(=O)N1CC(NC(=O)Cn2ccc3cc(C(F)(F)F)ccc32)C1` [Example 235], for which the pIC50 was 5.26.

As to `C=CC(=O)N1CC(NC(=O)Cn2ccc3cc(OC)ccc32)C1` [Example 236], the pIC50 was less than 3.60.

Regarding `C=CC(=O)N1CC(NC(=O)Cn2cc(I)c3cc(C(F)(F)F)ccc32)C1` [Example 257], the pIC50 was 6.01.
